US20230346820A1, “METHODS AND COMPOSITIONS FOR THE TREATMENT OF SARS-COV-2” (priority 2020, published 2023)
Read-outs that look alike come from different tables or passages of the source.

Tests used:
SARS-CoV-2 [1] = system: SARS-CoV-2
SARS-CoV-2 [2] = system: SARS-CoV-2; remark: listed apart in the source
SARS-CoV-2 [3] = assay: microbe, parasite or virus in culture; settings: Severe acute respiratory syndrome coronavirus 2, Calu-3, 48 h, read-out: Calu-3 CoV-2 EC50 [μM]
HeLa-ACE2 cells = assay: cells; format: cell-based, human; settings: Homo sapiens, HeLa-ACE2, read-out: HeLa-ACE-2 EC50 [μM] (Geomeans, n ≥ 2)
in vitro [4] = settings: human
SARS-CoV-2 [5] = assay: microbe, parasite or virus in culture
in vitro [6] = settings: human; remark: listed apart in the source
[7] = Severe acute respiratory syndrome coronavirus 2, HeLa-ACE2, read-out: HeLa-ACE2 CoV-2 EC50 [μM]
[8] = HeLa-ACE2 Uninfected Tox CC50 [μM]
[9] = Severe acute respiratory syndrome coronavirus 2, HeLa-ACE2, read-out: HeLa-ACE2 CoV-2 EC50 [μM], Table 4, aggregated data, Geomean, n = 3
[10] = HeLa-ACE2 Uninfected Tox CC50 [μM], Table 4, aggregated data, Geomean, n = 3

Structure (SMILES) | Calu3 SI CC50/CoV-2 EC50 (SARS-CoV-2 [1]; Table 4) | HeLa-ACE2 CC50/CoV-2 EC50 (SARS-CoV-2 [2]) | HeLa-ACE2 SI CC50/CoV-2 EC50 (SARS-CoV-2 [2]) | EC50 (SARS-CoV-2 [3]) [µM] | EC50 (HeLa-ACE2 cells) [µM] | CC50 (in vitro [4]) [nM] | EC50 (SARS-CoV-2 [5]; Severe acute respiratory syndrome coronavirus 2, HeLa-ACE2, 24 h, read-out: CoV-2 EC50 [μM] (Geomeans, n ≥ 2)) [µM] | EC50 (SARS-CoV-2 [5]; [7]) [µM] | CC50 (in vitro [6]; CC50 [μM] (Geomeans, n ≥ 2 except where indicated: *n = 1)) [µM] | CC50 (in vitro [6]; [8]) [µM] | EC50 (SARS-CoV-2 [5]; [9]) [µM] | CC50 (in vitro [6]; [10]) [µM] | HeLa-ACE2 SI CC50/CoV-2 EC50 (SARS-CoV-2 [2]; Table 4) | CC50 at 48 h (in vitro [4]) [nM] | CC50 (in vitro [6]) [µM] | Calu3 SI CC50/CoV-2 EC50 (SARS-CoV-2 [1])
C[C@H]1O[C@@H](O[C@H]2[C@@H](O)C[C@@H](O[C@@H]3[C@@H](O)C[C@H](O[C@H]4CC[C@@]5(C)[C@H](CC[C@@H]6[C@@H]5C[C@@H](O)[C@]5(C)[C@@H](C7=CC(=O)OC7)CC[C@]65O)C4)O[C@@H]3C)O[C@@H]2C)C[C@H](O)[C@@H]1O (stereo in doubt) [Digoxin] | >29.80 | 0.72 | 0.72 | 0.17 | 0.325 | > 5040 | 0.166 | 0.166 | 0.12 | 0.12 |  |  |  |  |  | 
CC(N)c1ccc(C(=O)Nc2ccncc2)cc1-c1ccc(F)cc1 (stereo not shown) [AMA-0076] | >16 |  |  | 3.87 |  | > 29900 |  |  |  |  | > 9.59 | 35.8 |  |  |  | 
O=c1[nH]c(=O)n([C@@H]2O[C@H](CO)[C@@H](O)[C@H]2O)cc1F [Analog of OGT-719] | 7.44 |  |  | 1.17 |  | 8730 |  |  |  |  | 4.02 | 0.109 | 0.03 |  |  | 
CCCCCCC1C(=O)O[C@H](C)[C@H](NC(=O)c2cccc(NC=O)c2O)C(=O)O[C@@H](C)[C@@H]1OC(=O)CC(C)C (stereo partly shown) [Antimycin A] | 22.00 |  |  | 0.028 |  | 608 |  |  |  |  | > 9.59 | > 39.8 |  |  |  | 
COC(=O)[C@@]12OC[C@]34[C@H]([C@@H](O)[C@@H]1O)[C@@]1(C)CC(=O)C(O)=C(C)[C@@H]1C[C@H]3OC(=O)[C@H](OC(=O)/C=C(\C)C(C)C)[C@@H]24 [Bruceantin] | 50.22 |  |  | 0.019 |  | 973 |  |  |  |  | 0.006 | 0.117 | 20.18 |  |  | 
COC1CC(OC2CCC3(C=O)[C@H]4CCC5(C)C(C6=CC(=O)OC6)CCC5(O)[C@@H]4CCC3(O)C2)OC(C)C1O (stereo partly shown) [CYMARINE] | 43.53 |  |  | 0.135 |  | 5870 |  |  |  |  | 0.237 | 0.287 | 1.21 |  |  | 
CC[C@H]1CN2CCc3cc(OC)c(OC)cc3[C@@H]2C[C@@H]1C[C@H]1NCCc2cc(O)c(OC)cc21 [Cephaeline] | 34.84 |  |  | 0.142 |  |  |  | 0.017 |  |  |  |  | 12.66 | 4960 | 0.212 | 
C[C@@H]1C[C@@H]([C@H](O)CC2CC(=O)NC(=O)C2)C(=O)[C@@H](C)C1 [Cycloheximide] | 12.50 |  |  | 0.195 |  |  |  | 0.634 |  |  |  |  | 2.32 | 2440 | 1.47 | 
CNC(=O)n1ccc2cc(Oc3ccnc(NC(=O)c4ccc(C5CCN(CCO)CC5)cc4)c3)c(OCCOC)cc21 [E-7090] | 19.88 |  |  | 0.753 |  | 15000 |  |  |  |  | 2.65 | 21.2 | 8.01 |  |  | 
CC[C@H]1CN2CCc3cc(OC)c(OC)cc3[C@@H]2C[C@@H]1C[C@H]1NCCc2cc(OC)c(OC)cc21 [Emetine] | 19.97 |  |  | 0.444 |  | 8870 |  |  |  |  | 0.06 | 0.34 | 5.66 |  |  | 
CCCCCCCC/C=C/CCCCCCCC(=O)OC[C@H]1O[C@@H](n2ccc(N)nc2=O)C(F)(F)[C@@H]1O [Gemcitabine elaidate] | >92 |  |  | 0.324 |  | > 29900 |  |  |  |  | > 9.59 | 6.01 |  |  |  | 
CC(=O)O[C@H]1C[C@H](O[C@H]2[C@@H](O)C[C@H](O[C@H]3[C@@H](O)C[C@H](O[C@H]4CC[C@@]5(C)[C@H](CC[C@@H]6[C@@H]5C[C@@H](O)[C@]5(C)[C@@H](C7=CC(=O)OC7)CC[C@]65O)C4)O[C@@H]3C)O[C@@H]2C)O[C@H](C)[C@H]1O[C@@H]1O[C@H](CO)[C@@H](O)[C@H](O)[C@H]1O [LANATOSIDE] | 31.97 |  |  | 0.194 |  | 6210 |  |  |  |  |  | 1.35 | 6.56 |  |  | 
CC(C)(O)c1ccccc1-c1ccc2[nH]c(/C=C/c3ccc(C(F)(F)F)cc3)nc2c1 [Mavatrep] | 5.50 |  |  | 2.66 |  | 14600 |  |  |  |  | > 9.59 | 22.5 |  |  |  | 
Sc1ncnc2nc[nH]c12 [Mercaptopurine] | 6.95 |  |  | 0.197 |  | 1370 |  |  |  |  | 3.57 | 19.6 | 5.51 |  |  | 
CO[C@H]1[C@@H](O)C[C@H](O[C@H]2[C@@H](O)C[C@H](O[C@H]3[C@@H](O)C[C@H](O[C@H]4CC[C@@]5(C)[C@H](CC[C@@H]6[C@@H]5C[C@@H](O)[C@]5(C)[C@@H](C7=CC(=O)OC7)CC[C@]65O)C4)O[C@@H]3C)O[C@@H]2C)O[C@@H]1C [Metildigoxin] | 6.22 |  |  | 0.399 |  |  |  | 0.284 |  |  |  |  | 0.56 | 1240 | 0.159 | 
CC[C@@H]1/C=C/C=C/C[C@H](C)[C@@H](O)[C@](C)(O)C(=O)[C@H](C)[C@@H](O)[C@H](C)C(=O)[C@H](C)[C@@H](O)[C@H](C)/C=C/C(=O)O[C@H]2[C@@H](C)[C@@H](CC1)O[C@@]1(CC[C@@H](C)[C@@H](C[C@H](C)O)O1)[C@@H]2C [OLIGOMYCINA] | >4000 |  |  | 0.007 |  | > 29900 |  |  |  |  | > 9.59 | 36 |  |  |  | 
CC1OC(O[C@H]2CC[C@@]3(C=O)[C@H](CC[C@@H]4[C@@H]3CC[C@]3(C)[C@@H](C5=CC(=O)OC5)CC[C@]43O)C2)C(O)C(O)C1O (stereo partly shown) [Peruvoside (analog)] | 5.61 |  |  | 0.251 |  | 1410 |  |  |  |  | 0.246 | 0.345 | 1.40 |  |  | 
CCCCCCCCCCCCCC(=O)O[C@@H]1[C@@H](C)[C@@]2(O)[C@@H](C=C(CO)C[C@]3(O)C(=O)C(C)=C[C@@H]23)[C@@H]2C(C)(C)[C@]12OC(C)=O [Phorbol 12-myristate 13-acetate] | 1384.37 |  |  | 0.016 |  | 22500 |  |  |  |  | 0.07 | 0.201 | 2.89 |  |  | 
C=C(C)[C@]12C[C@@H](C)[C@@]34O[C@](Cc5ccccc5)(O[C@@H]1[C@@H]3C=C(COC(=O)Cc1ccc(O)c(OC)c1)C[C@]1(O)C(=O)C(C)=C[C@@H]41)O2 [Resiniferatoxin] | 19.13 |  |  | 0.903 |  |  |  | 1.3 |  |  |  |  | 5.53 | 17300 | 7.17 | 
O=c1[nH]ccc2cc(OC3CCNCC3)ccc12 [SAR-407899] | >7.77 |  |  | > 3.85 |  | > 29900 |  |  |  |  |  | > 38.7 | 4.03 |  |  | 
N=C(N)c1ccc2cc(OC(=O)c3ccc(CNC(=O)CCCC(=O)O)o3)ccc2c1 [TO-195] | >45 |  |  | 0.657 |  | > 29900 |  |  |  |  | > 9.59 | > 39.8 | >6 |  |  | 
Nc1ncnc2c1ccn2[C@@H]1O[C@H](CO)[C@@H](O)[C@H]1O [TUBERCIDIN] | 9.68 |  |  | 0.111 |  | 1070 |  |  |  |  | 0.183 | 0.557 | 3.04 |  |  | 
O=C(c1ccccc1)c1cccc(NC(=O)c2ccn3c2CSC3c2cccnc2)c1 (stereo not shown) [TULOPAFANT] | 5.01 |  |  | 2.92 |  | 14600 |  |  |  |  | > 9.59 | 36.6 |  |  |  | 
CC(=O)O[C@H]1C[C@H](O[C@H]2[C@@H](O)C[C@H](O[C@H]3[C@@H](O)C[C@H](O[C@H]4CCC5(C)[C@H](CC[C@@H]6[C@@H]5CCC5(C)[C@@H](C7=CC(=O)OC7)[C@@H](O)CC65O)C4)O[C@@H]3C)O[C@@H]2C)O[C@H](C)[C@H]1O[C@@H]1O[C@H](CO)[C@@H](O)[C@H](O)[C@H]1O (stereo partly shown) [[…]] | 4.90 |  |  | 0.688 |  | 3370 |  |  |  |  | 0.803 | 1.75 | 2.175 |  |  | 
C#C[C@]1(O)CC[C@H]2[C@@H]3CCc4cc(OS(=O)(=O)C(C)C)ccc4[C@H]3CC[C@@]21C [ethinyl estradiol sulfonate] | 5.59 |  |  | 1.23 |  | 6860 |  |  |  |  | > 9.59 | 20.4 |  |  |  | 
COc1ccc2c(c1)c(CC(=O)NO)c(C)n2C(=O)c1ccc(Cl)cc1 [oxametacin] |  |  | 0.64 | 3.56 |  | 17700 |  | 9.14 |  | 5.87 |  |  |  |  |  | 4.98
Cn1c(C#N)ccc1-c1ccc2c(c1)C(C)(C)OC(=S)N2 [tanaproget] | 7.99 |  |  | 2.44 |  | 19300 |  |  |  |  | 0.141 | 0.128 | 0.91 |  |  | 
